These results are taken from US11730717B1, “Melanin-inspired antimicrobial” (The Board of Regents for the Oklahoma Agricultural and …, priority 2020, dated 2023).

Experiment [1] deals with Escherichia coli (E. coli). Briefly: Antimicrobial activity against E. coli. It counts as cell-based. Here is the method:
(§1) The methicillin resistant Staphylococcus aureus (MRSA) and Pseudomonas aeruginosa (PA) strains used in this study are clinical isolates obtained from an adult CF patient at the Cystic Fibrosis Clinic at the OU Children's Hospital (Oklahoma City, Okla.). Escherichia coli (E. coli) and Enterococcus faecalis (E. faecalis) were obtained from American Type Culture Collection (ATCC). The strains were grown overnight with shaking at 37° C. (220 RPM) in 15 mL of Luria-Bertani (LB) broth. The overnight culture was sub-cultured the next day before use for the MIC experiments. All sub-cultures consisted of 1 mL of the overnight culture, mixed with 10 mL of Mueller Hinton broth. The working stock of the EIPE-1 and DBI was prepared by dissolving 1 mg of each in 1 mL of DMSO.
The minimum inhibitory concentrations (MICs) were determined by the broth microdilution method, following the guidelines of the Clinical and Laboratory Standards Institute (CLSI). Two-fold serial dilutions of EIPE-1, DBI, and Arm (starting with 1 mg/mL) were prepared in a 100 μL volume in 96-well microtiter plates. The dilution series included DMSO as a negative control. […] Plates were incubated with shaking at 220 RPM at 37° C., and the MIC was determined based on the lowest concentration at which no visible growth of the bacterial isolate was observed.

Experiment [2] deals with Enterococcus faecalis (E. faecalis). Put plainly: MIC by broth microdilution. It counts as cell-based. The protocol: as §1
(§2) The minimum inhibitory concentrations (MICs) were determined by the broth microdilution method, following the guidelines of the Clinical and Laboratory Standards Institute (CLSI). Two-fold serial dilutions of EIPE-1, DBI, and Arm (starting with 1 mg/mL) were prepared in a 100 μL volume in 96-well microtiter plates. The dilution series included DMSO as a negative control. The bacterial culture […] was normalized to an OD600 of 0.2 and was then added to each well. Plates were incubated with shaking at 220 RPM at 37° C., and the MIC was determined based on the lowest concentration at which no visible growth of the bacterial isolate was observed.
(§3) In order to determine the MIC of EIPE-1 on MRSA, a culture of MRSA was grown overnight in Mueller Hinton broth (MHB) at 37° C., sub-cultured by a 1/100 dilution into MHB and dispensed into a 96 well culture block (900 μL of diluted culture in each well). To each well either DMSO or a serial dilution of EIPE-1 was added, then the culture was grown for 18 h at 37° C. The next day each well was tested for either growth or inhibition of growth by measuring of the OD^600 of the resulting culture. […] For comparison, the MIC of EIPE-1 was also determined against E. faecalis (8 μg/mL, 9 μM), confirming activity against Gram-positive bacteria.

The test system of experiment [3] is methicillin resistant Staphylococcus aureus (MRSA) clinical isolate. Briefly: MIC by broth microdilution. It counts as cell-based. The conditions noted are these: Staphylococcus aureus, MRSA, 18 h, clinical isolate of MRSA from an adult CF patient; broth culture, 18 h at 37° C.; read-out: minimum inhibitory concentration (MIC). The protocol: as §1, §2, §3
For experiment [4], the system named is Gram-positive bacteria, including E. faecalis and clinical isolates MRSA. Put plainly: MIC summary for Gram-positive bacteria. It is filed as cell-based. The protocol: as §2
In summary, a new antimicrobial, EIPE-1, was designed and synthesized, inspired by the black-brown pigment, Eumelanin. It was confirmed that the Eumelanin-inspired core DBI maintained its intrinsic antimicrobial activity, and that enhancement could be achieved with the incorporation of bactericidal moieties. […] Bactericidal effects of EIPE-1 against S. aureus were monitored and confirmed using the Live/Dead staining and fluorescent microscopy.

Another experiment relates to B. subtilts ATCC 6633. Briefly: MIC and MBC values (Table 2). It is filed as cell-based. The following applies: Bacillus subtilis, ATCC6633.
Another experiment deals with MRSA. Briefly: Live/Dead staining and fluorescent microscopy. It counts as cell-based, Staphylococcus aureus. Here is the method:
MRSA was grown overnight in 10 mL of LB broth, sub-cultured (5 mL of overnight culture added to 20 mL LB) and grown for 3 h. Bacterial culture (150 μL) were removed and transferred to a 1.5 mL centrifuge tube, which was treated with DMSO, EIPE-1 (0.01 mg/mL) or DBI (0.01 mg/mL) for 30 minutes. Equal amounts of the two dyes (SYTO 9 dye, 3.34 mM in DMSO), and propidium iodide (20 mM in DMSO) were mixed. Then 0.5 μL of the dye mixture was added to each tube of treated MRSA cultures. Wet mounts were prepared on glass slides for imaging live and dead MRSA, and Differential Interference Contrast (DIC) images were obtained using a Leica DMI600B fluorescent microscope. To determine the percentage of bacteria alive and dead, the total bacteria in each condition were counted in 20 fields of view and graphed using Prism 5.0.
To address MRSA viability in response to EIPE-1 treatment, a Live/Dead staining and microscopy was utilized. MRSA was treated with either DBI or EIPE-1 (16 μg/mL, 17 μM each) for 30 minutes (DMSO was used as a negative solvent control) and then stained with the dyes, Syto™ 9 and propidium iodide.

Experiment [5] concerns Cryptococcus neoformans serotype A strain H99. Briefly: Antifungal MIC assay. It counts as cell-based. Here is the method:
Cryptococcus neoformans serotype A strain H99 as well as Candida ablicans strain SC5314, were readily available in the lab. The stock of cells is stored at −80° C. to preserve the fungi and prevent contamination. The cells were grown and maintained in yeast extract-peptone-dextrose (YPD) media (Difco). Cryptococcus or Candida cells were incubated in YPD broth for 18 hrs at 30° C., in a shaking incubator. After the incubation period, they were washed three times in sterile phosphate-buffered saline (PBS) to remove all remaining residue of YPD. The cells were then quantified by using trypan blue dye exclusion in a hemocytometer.
C. neoformans were suspended in RPMI with MOPS, 0.165M, at a concentration of 0.5×10^3 cells/mL. RPMI MOPS media was added to a 96-well plate in a volume of 100 μL to every well, with the exception of column 1. An additional 80 μL of RPMI MOPS was added to column 4 for a total of 180 μL/per well. Amphotericin B or EIPE-1 was added to columns […] with a volume of 20 μL at a concentration of 1 mg/mL. Contents were mixed, then serially diluted 100 μL down the plate until column 11. The last 100 μL was discarded, leaving column 12 blank. C. neoformans was added at a volume of 100 μL per well from column 4 to column 12, so the final volume of the wells was 200 μL. Plates were incubated at 35° C. in a humid incubator for 48 hrs.

Experiment [6] deals with Candida isolates from the airways of CF patients. Briefly: MIC against Candida clinical isolates. It counts as cell-based. The following applies: range over multiple Candida isolates from CF patients (FIG. 8). The protocol:
EIPE-1 was evaluated against multiple Candida isolates from the airways of CF patients.

The next experiment relates to P. moltocida P-1581. Put plainly: MIC and MBC values (Table 2). It counts as cell-based. The following applies: Pasteurella, P1581.

“And” between values parts separate entries of the source, which are not always exact repeats. Equal values may be shown once. Some results are limits rather than exact numbers.

Consider `COC(=O)c1cc2c(C#Cc3ccc(OCCC[N+](C)(C)C)cc3)c(OC)c(OC)c(C#Cc3ccc(OCCC[N+](C)(C)C)cc3)c2n1C` [EIPE-1, 3,3′-((((5,6-dimethoxy-2-(methoxycarbonyl)-1-methyl-1H-indole-4,7-diyl)bis(ethyne-2,1-diyl))bis(4,1-phenylene))bis(oxy))bis(N,N,N-trimethylpropan-1-aminium) iodide], for which the “activity against E. coli” value in experiment [1] is “did not display any activity”. Also, the MIC in experiment [2] is 8 µg/mL and 9 µM; in experiment [3], 16 µg/mL and 17.1 µM; in experiment [4], 8 µg/mL to 16 µg/mL and 8.5 µM to 17 µM; against B. subtilts ATCC 6633, 1 µg/mL; in experiment [5] (Cryptococcus neoformans, read-out: MIC for C. neoformans), 1.75 µg/mL; in experiment [6], 4 to 11 µg/mL. The molecule also came in with an MIC against P. moltocida P-1581 of 64 µg/mL. The MBC in the experiment with B. subtilts ATCC 6633 amounted to 1 µg/mL; against P. moltocida P-1581 it was 64 µg/mL. The “Live/Dead staining (green = intact membrane, red = damaged membrane)” value in the experiment with MRSA (16 μg/mL, 17 μM, 30 minutes, Syto 9 and propidium iodide) is “only stained red”. Further, the “time of exposure until biocidal activity occurred” value in the experiment with MRSA (MRSA) is no more than 30 min. Also, the “MIC for C. neoformans” value in experiment [5] amounted to 3.1 µg/mL. For the same molecule, the “Minimum inhibitory concentration (MIC) for the isolate of C. neoformans” value in [5] (35° C., 48 hrs, RPMI with MOPS) amounted to 1.749 ± 0.1080 µg·mL. This molecule returned an MIC, C. neoformans in [5] (across seven MIC assays) of 1.67 µg/mL.
